pIC50: −log10 of the molar value. ≈ marks a conversion by molar mass, not a printed value.
Assays:
HeLa cells = assay type: cell-based
TC-83 [1] = conditions: mouse, in vivo, ip; cited from earlier work
[2] = system: VEEV vaccine strain (TC-83); conditions: cited from earlier work
TC-83 virus = assay: microbe, parasite or virus in culture; assay type: cell-based, Venezuelan equine encephalitis virus (VEEV)
[3] = pH 7.4; cited from earlier work
TC-83 [4] = system: TC-83; parameters: species or system C3H/HeN mice; conditions: mouse, in vivo
[5] = system: VEEV (ZPC738 virulent strain); assay: microbe, parasite or virus in culture; assay type: cell-based, Venezuelan equine encephalitis virus (VEEV)
[6] = Venezuelan equine encephalitis virus, HeLa, 24 h

Q: With `O=C(N/N=C/c1ccc(O)c(O)c1)c1cc2ccccc2cc1O` [DYN, dynasore] as the compound, how does the “LC-MSN internalization in presence of inhibitor (in words)” value (HeLa cells) read?
A: clearly inhibited

Q: And the “reduction of the percentage of cells that internalized LC-MSNs” value (HeLa cells)?
A: 71%

Q: What does the source list for `CO/C1=C\C(C)=C\[C@@H](C)[C@@H](O)[C@@H](C)C/C(C)=C/C=C/[C@H](OC)[C@@H]([C@@H](C)[C@@H](O)[C@H](C)[C@@]2(O)C[C@@H](O)[C@H](C)[C@@H](C(C)C)O2)OC1=O` [BAF, bafilomycin A]?
A: LC-MSN internalization / uptake in presence of inhibitor (in words) (HeLa cells): almost completely inhibited; LC-MSN internalization in presence of inhibitor (in words) (HeLa cells): clearly inhibited

Q: For `Oc1ccc2ccccc2c1SSc1c(O)ccc2ccccc12` [IPA-3], which “LC-MSN internalization in presence of inhibitor (in words)” value (HeLa cells) is on record?
A: not

Q: What does the source list for `CN1CCN(C)C(=Nc2ccc([N+](=O)[O-])cc2C(=O)Nc2ccccc2)C1` [ML336, 2-[(1,4-dimethylpiperazin-2-ylidene)amino]-5-nitro-N-phenylbenzamide]?
A: survival rate (TC-83 [1]): 71%; reduction of viral titer ([2]; at nanomolar concentrations): 630,000 fold; EC90 [2]: 170 nM; TC-83 viral inhibition (in words) (TC-83 virus; HeLa cells, increasing concentration or LC-MSN mass): dose-dependent manner; pIC50 (TC-83 virus; [6]): 6.79; solubility [3]: 40 µg/mL (≈ 109 µM); brain viral load / titer vs PBS (in words) (TC-83 [4]): not significantly different from PBS treated animals; VEEV viral inhibition (in words) ([5]; HeLa cells, 24 hours): dose-dependent manner; pIC50 [5, 6]: 7.82

Q: Which results are given for `CN(C)CCCN1c2ccccc2Sc2ccc(Cl)cc21` [CPZ, chlorpromazine]?
A: LC-MSN internalization in presence of inhibitor (in words) (HeLa cells): clearly inhibited; reduction of the percentage of cells that internalized LC-MSNs (HeLa cells): 84%

Q: For `CCCCCCCCCCCCCC(=O)O[C@@H]1[C@@H](C)[C@@]2(O)[C@@H](C=C(CO)C[C@]3(O)C(=O)C(C)=C[C@@H]23)[C@@H]2C(C)(C)[C@]12OC(C)=O` [PMA, phorbol 12-myristate 13-acetate], which “LC-MSN internalization in presence of inhibitor (in words)” value (HeLa cells) is on record?
A: not

— patent publication US11045554B1 (National Technology & Engineering Solutions of Sandia, LLC, priority 2018, dated 2021)
